Measurements: patent US20230175069A1, “COMPOSITIONS AND METHODS FOR DETECTING GENE FUSIONS OF ESR1 AND CCDC170 FOR DETERMINING INCREASED RESISTANCE TO ENDOCRINE THERAPY AND FOR CANCER TREATMENT” (UNIVERSITY OF PITTSBURGH-OF THE COMMONWEAL TH SYSTEM OF …, priority 2020, published 2023)

Columns and labels:
[1] = system: ZR-75-1 cells; assay: Clonogenic assay in ZR-75-1 cells (E2-E6 ESR1-CCDC170 fusion); format: cell-based, human; conditions: for cell viability, concomitant inhibitor compared to endocrine treatment alone: lapatinib 2 µM or dasatinib 0.05 µM with tamoxifen or fulvestrant
Experimental: A) Sensitivity of ZR-75-1 cells to tamoxifen in combination with HER2, SRC, or HER2+SRC inhibitors as measured by clonogenic assays. ZR-75-1 cells were treated with different dosages of 4-OH tamoxifen (µM), or 4-OH tamoxifen plus lapatinib (2 µM), dasatinib (0.05 µM), or lapatinib (2 µM) + dasatinib (0.05 µM). Data were normalized against vehicle treatment alone (as 100%). […] Data were normalized against vehicle treatment alone (as 100%).
Left panel, the representative plate images of clonogenic assays. Right panel, the relative clonogenic viabilities normalized to tamoxifen monotreatment (Means ± SD. of triplicates).
The clonogenic viabilities following the respective treatments were assessed by clonogenic assays.

[2] = system: MDA-MB-415; assay: Clonogenic assay in fusion-negative MDA-MB-415 cells; format: cell-based; conditions: Homo sapiens; MDA-MB-415 (fusion-negative); titrated lapatinib in combination with 0.5 µM tamoxifen, 10 to 13 days; read-out: IC50 (clonogenic viability)
[3] = system: CAMA-1; assay: Clonogenic assay in fusion-negative CAMA-1 cells; format: cell-based; conditions: Homo sapiens; CAMA-1 (fusion-negative); titrated lapatinib in combination with 0.5 µM tamoxifen, 10 to 13 days; read-out: IC50 (clonogenic viability)
[4] = system: HCC1428 cells; assay: Clonogenic assay in HCC1428 cells (endogenous E2-E10 ESR1-CCDC170 fusion); format: cell-based, human; conditions: for therapeutic effect when combined with fulvestrant, comparison / therapeutic activity in combination with tamoxifen or fulvestrant, comparison between inhibitors / cell viability, inhibitor in combination with tamoxifen or fulvestrant compared to tamoxifen or fulvestrant alone: lapatinib 2 µM; for therapeutic effect when combined with fulvestrant, comparison: dasatinib 0.05 µM plus fulvestrant; for therapeutic activity in combination with tamoxifen or fulvestrant, comparison between inhibitors: dasatinib 0.05 µM vs BEZ235 8 nM; for therapeutic activity in combination with tamoxifen or fulvestrant, comparison between inhibitors / cell viability, inhibitor in combination with tamoxifen or fulvestrant compared to tamoxifen or fulvestrant alone: AZD8931 1 µM; for cell viability, inhibitor in combination with tamoxifen or fulvestrant compared to tamoxifen or fulvestrant alone: dasatinib 0.05 µM, BEZ235 8 nM
[5] = system: HER2; conditions: HCC1428 cells

Row | SMILES | cell viability, concomitant inhibitor compared to endocrine treatment alone [1] | therapeutic effect when combined with fulvestrant, comparison [4] | therapeutic activity in combination with tamoxifen or fulvestrant, comparison between inhibitors [4] | cell viability, inhibitor in combination with tamoxifen or fulvestrant compared to tamoxifen or fulvestrant alone [4] | also measured
1 | CS(=O)(=O)CCNCc1ccc(-c2ccc3ncnc(Nc4ccc(OCc5cccc(F)c5)c(Cl)c4)c3c2)o1 [lapatinib] | further decreased cell viability | comparable therapeutic effects | better therapeutic activities than BEZ235 or AZD8931 | significantly inhibited cell viability | IC50 ([1]; Homo sapiens, ZR-75-1 (E2-E6 variant), titrated lapatinib in combination with 0.5 µM tamoxifen, 10 to 13 days, normalized to tamoxifen monotreatment, read-out: IC50 (clonogenic viability)): 0.6 µM; IC50 [2]: 4 µM; IC50 [3]: 6.5 µM; IC50 ([4]; Homo sapiens, HCC1428 (E2-E10 variant), titrated lapatinib in combination with 0.5 µM tamoxifen, 10 to 13 days, normalized to tamoxifen monotreatment, read-out: IC50 (clonogenic viability)): 0.15 µM
2 | Cn1c(=O)n(-c2ccc(C(C)(C)C#N)cc2)c2c3cc(-c4cnc5ccccc5c4)ccc3ncc21 [BEZ235] | – | – | – | significantly inhibited cell viability | –
3 | CNC(=O)CN1CCC(Oc2cc3c(Nc4cccc(Cl)c4F)ncnc3cc2OC)CC1 [AZD8931] | – | – | – | significantly inhibited cell viability | –
4 | CC/C(=C(\c1ccccc1)c1ccc(OCCN(C)C)cc1)c1ccccc1 [tamoxifen] | – | – | – | – | response of cells to endocrine treatment (clonogenic assay) ([1]; increasing doses of tamoxifen or fulvestrant): responded; cell growth (clonogenic assay), endocrine agent alone ([4]; Tam 0.5 µM or Ful 0.1 µM, 72 hours): reduced cell growth efficiently; HER2 protein level (Western blot) [5]: upregulated
5 | Cc1nc(Nc2ncc(C(=O)Nc3c(C)cccc3Cl)s2)cc(N2CCN(CCO)CC2)n1 [dasatinib] | did not show any significant therapeutic benefit | comparable therapeutic effects | better therapeutic activities than BEZ235 or AZD8931 | significantly inhibited cell viability | activity in the presence of tamoxifen, comparison ([4]; dasatinib 0.05 µM vs lapatinib 2 µM plus 4-OH tamoxifen): better activity than lapatinib
